Test results from US7402575B2, “Methods of treating inflammation” (priority 2003, dated 2008).
Entries after “also recorded” stand apart in the source; their conditions may differ.

Experiments:
[1] = Plasma concentrations of TAC in the previous in vivo experiments; set-up: species or system dog; details: in vivo experiments of Example 2; printed as low 10^−5M range
Description: The dose of TAC used in the Pretreatment Study was based on calculations previously obtained from the ventricular trabecular experiments in which it was estimated that a plasma concentration of at least 10^−5M would be required to inhibit lysozyme's depressant activity in vivo (49). Based on the molecular weight of TAC (628 MW), the average size of the dog (20 kg), and the estimated distribution space of approximately 50% of total body weight, the dose chosen was 100 mg (Sigma Corp, Canada, Oakville, Ontario) mixed in 200 ml 5% dextrose in water (D5W) that was given intravenously over 0.5 hr. After this initial dose, a dose of 50 mg mixed in 50 ml D5W was continuously infused over each hour for the remainder of the study. The placebo group received an identical amount of D5W over the course of the study.
In the present study, the inventors examined whether the administration of chitobiose after 3.5 hrs of E. coli sepsis at a relatively high dose could reverse the myocardial depression that develops in this model.

[2] = system: Datura stramonium lectin; assay: Inhibition by TAC of lectin-induced depression of isometric tension in right ventricular trabecular preparation; assay type: cell-based, dog; details: TAC 10^−4M pre-treatment
Description: After baseline tension was determined, either the lectin or placebo was placed into respective organ baths. The concentrations of the lectins used were 10^−8M, 10^−7M, and 10^−6M based on the concentration of lysozyme found in sepsis that averaged approximately 10^−8M. In the case of Datura stramonium lectin, moreover, the effect of TAC on inhibiting the myocardial depression caused by this lectin was also examined. […] Measurements were obtained at 5 minute intervals. The changes in isometric tension measured from baseline were compared between the lectin treated and placebo preparations.
Lectins are nonenzymatic proteins that bind to carbohydrates and can be classified by their specificity for a particular sugar or polysaccharide (42). […] After baseline tension was determined, either the lectin or placebo (i.e. KH) was placed into respective organ baths in which the concentrations of the lectins used were similar to those described for Lzm-S. In the case of DSL, moreover, it was assessed whether TAC could also prevent the depression caused by this lectin.

[3] = system: E. coli sepsis in dogs; assay: Pretreatment Study: TAC given before E. coli sepsis, hemodynamics; assay type: in vivo, dog; details: for Arterial pH / HR / Hct / Pwp / SVR: mean±SE, n=6
Description: In all of the studies outlined, the animals were randomized into treatment and nontreatment placebo groups (see below). The E. coli model used in these studies was identical to that previously described (6). Sepsis was induced by the intravenous infusion of 10^10 colony forming units of live E. coli (designation 011:B4). The bacteria were suspended in normal saline solution and were given over 0.5 hour. A constant infusion of approximately 5×10^9 colony forming units/hour of E. coli was then maintained for the remainder of the experiment.
The animals (16-24 kg) were initially anesthetized with thiopental sodium (20 mg/kg, intravenously) and constantly infused with sufentanil citrate (1 ug/min) and midazolam (5 ug/kg/min) (33). Drug rates were adjusted as required to abolish the palpebral reflex. The animals were placed in the supine position; the trachea was intubated with an endotracheal tube; and the lungs were mechanically ventilated at a tidal volume of 20 ml/kg. The ventilator rate was initially set to maintain blood pH at approximately 7.35 and was increased as necessary to reverse the metabolic acidosis that developed over the course of the study. Approximately 100% oxygen was inspired, so that hypoxemia would not affect the results of the study.
Under sterile conditions, the right jugular vein was percutaneously cannulated with an introducer (Arrow International, Reading, Pa.). A thermister tipped catheter was advanced from the jugular vein into the pulmonary artery to measure mean pulmonary arterial pressure (Ppa), mean pulmonary capillary wedge pressure (Pwp), mean right atrial pressure (Pra), thermodilution cardiac output (CO, Columbus Instruments, OH), and to obtain mixed venous oxygen blood samples. Another introducer was placed into the left jugular vein for administration of intravenous saline solution and the treatment or placebo drug (see below). A polyethylene catheter was also percutaneously placed into the femoral artery to measure mean blood pressure (MAP), and to obtain samples of blood for blood gas analysis, blood hematocrit (Hct), lactate concentrations, and blood cultures in some cases. Lactate was measured by an automated lactate dehydrogenase based assay (34) and was performed only in ETS and LTS because of equipment difficulties in the Pretreatment Study.
All catheters were connected to transducers (Cobe Laboratories), were referenced relative to the left atrium and were connected to a chart recorder (Astro-Med, W Warwick, R.I.). Heart rate (HR) was measured from the recorder tracing. Stroke-volume (SV) was calculated as CO/HR. Systemic vascular resistance (SVR) was calculated from [(MAP-Pra)/CO]×80. At each measurement interval (see below), a full set of measurements included MAP, CO, Ppa, Pra, Pwp, Hct, HR, SV, and arterial and mixed venous blood samples.
In the analysis, stroke work (SW) was the primary index of cardiac performance and the primary hemodynamic endpoint chosen in the in vivo studies (35,18) (see Discussion). At constant preload, SW reflects both the decreases in afterload and the changes in contractile function that accompany sepsis. SW was determined at approximately the same Pwp at each measurement interval. The baseline Pwp usually averaged ≈8-10 mmHg, and normal saline solution was given as necessary to maintain Pwp constant over the experimental period. SW was calculated from SV (MAP-Pwp).
Pretreatment Study. In the Pretreatment Study, TAC was given before the bacteria were infused. Based on previous studies, it takes approximately 3 to 4 hours of constant bacteremia in order for myocardial depression to develop in this model (6,18). A three to five hour course of bacteremia was therefore considered necessary to determine if TAC could block the decline in SW observed at this interval. […]

[4] = immediately after TAC infusion, before sepsis

With CC(=O)N[C@H]1[C@H](O[C@H]2[C@H](O)[C@@H](NC(C)=O)C(O)O[C@@H]2CO)O[C@H](CO)[C@@H](O[C@@H]2O[C@H](CO)[C@@H](O)[C@H](O)[C@H]2NC(C)=O)[C@@H]1O (stereo partly drawn) [TAC, N,N′,N″ triacetylglucosamine] the “Plasma concentrations of TAC” value [1] was ~10^−5 M, the “Effect of TAC on myocardial depression caused by Datura stramonium lectin” value [2] was “markedly attenuated; also recorded: could be reversed by pre-treatment with TAC; also recorded: blocked the isometric depression” and the “CO after pretreatment, before sepsis” value [3] was “no significant effect on CO”. For the same compound, the “CO at the 3 h period vs baseline” value [3] was “CO increased further at the 3 h period”, the “MAP after treatment, before sepsis” value [3] was “no effect on baseline MAP” and the “MAP at the 5 hour period vs nontreated group” value [3] was “significantly prevented the decrease in MAP; also recorded: significant increases”. The “SV, change between baseline and 5 h vs nontreated group” value [3] was “significantly different between the treated and nontreated groups; also recorded: significant increases”, the “SW, change between baseline and 5 h vs nontreated group” value [3] was “significantly different between the treated and nontreated groups; also recorded: significant increases” and the “Arterial pH” value ([3]; 3 h postsepsis) was 7.25 ± .001. For the same compound, the HR ([3]; 3 h postsepsis) was 105 ± 5 beats/min, the Hct ([3]; 3 h postsepsis) was 28 ± 2% and the Pwp ([3]; 3 h postsepsis) was 9 ± .9 mmHg. The SVR ([3]; 3 h postsepsis) was 1272 ± 221 dynes s cm^−5, the “Arterial pH” value ([3]; 5 h postsepsis) was 7.22 ± 0.1 and the HR ([3]; 5 h postsepsis) was 90 ± 5 beats/min. The Hct ([3]; 5 h postsepsis) was 26 ± 3%, the Pwp ([3]; 5 h postsepsis) was 9.6 ± .9 mmHg and the SVR ([3]; 5 h postsepsis) was 1504 ± 249 dynes s cm^−5. For the same compound, the “Arterial pH” value ([3]; baseline before TAC) was 7.35 ± .01, the HR ([3]; baseline before TAC) was 74 ± 11 beats/min and the Hct ([3]; baseline before TAC) was 33 ± 1%. For the same compound, the Pwp ([3]; baseline before TAC) was 9.3 ± .8 mmHg, the SVR ([3]; baseline before TAC) was 2472 ± 320 dynes s cm^−5 and the “Arterial pH” value [3, 4] was 7.28 ± .01. For the same compound, the HR [3, 4] was 78 ± 5 beats/min, the Pwp [3, 4] was 10.4 ± 1 mmHg and the SVR [3, 4] was 1872 ± 320 dynes s cm^−5.
